The structures appear in SMILES notation. pEC50: −log10 of the molar value. “Also recorded” adds a separate entry of the source.

In general, pEC50 refers to the negative decadic logarithm of the EC50, by convention in mol/L.

Data set [1] concerns primary mesencephalic cultures. Description: MTT cell viability assay. The class given is cell-based, mouse. Conditions: 24 h. As to the method:
The cytotoxic effect of compounds treatment was measured by evaluating mitochondrial dehydrogenase activity using the MTT salt assay.
Neuronal differentiated SK—N—SH cells were thus exposed to different concentrations of I-threo, IV-threo, I-erythro, V-threo and V-erythro as described above, and then used for the MTT cell viability assay.
Animals: C57BL/6J wt mice (C57BL/6J) (Charles River, Wilmington, MA) used in this study, were bred in our animal house facility at the Department of Molecular and Translational Medicine of University of Brescia. Animals were maintained under a 12h light-dark cycle at a room temperature (rt) of 22° C. and had ad libitum food and water. All experiments were made in accordance to Directive 2010/63/EU of the European Parliament and of the Council of 22 Sep. 2010 on the protection of animals used. All experimental and surgical procedures conformed to the National Research Guide for the Care and Use of Laboratory Animals were approved by the Animal Research Committees of the University of Brescia (Protocol Permit 719/2015-PR). All achievements were made to minimize animal suffering and to reduce the number of animals used. Primary neuronal cultures from mesencephalic tissues were dissected from C57BL/6J 13-days embryos. Briefly, after mechanical dissociation the single cells were re-suspended in Neurobasal medium containing 100 μg/ml penicillin, 100 μg/ml streptomycin, 0.5 mM glutamine and 1% B27 supplement. Cells were then centrifuged and cell count and viability assays were performed using the Trypan Blue exclusion test. Cells were seeded onto poly-D-lysine-coated glass coverslides in 24-well plates (14 μg/mL) for immunocytochemistry (100000 cells/well). Cells were maintained at 37° C. under a humidified atmosphere of 5% CO2 and […] for at least 10 days in vitro (DIV 10) prior to their use to allow their maturation. At DIV 10, cells were treated with increasing concentrations (0.01 μM-0.1 μM-1 μM-[…]) of the different compounds (I-threo, IV-threo, I-erythro, V-threo, VI-threo). Twenty-four h after the treatments, culture medium was removed and 300 μL of MTT 0.5 mg/mL diluted in culture medium was added to each well. After 90′ incubation at 37° C., the medium was removed and 250 μL aliquots of DMSO were added to each well to solubilize the formazan crystals. Absorbance was measured at 570 nm using a microplate reader. Cell viability was expressed as absorbance value.
On the technique in general: Tetrazolium dyes change colour on reduction, which living cells bring about.

Data set [2] relates to alpha-synuclein aggregation in SK—N—SH cells. Description: Alpha-synuclein aggregation after glucose deprivation in SK-N-SH alpha-synuclein stable clones (immunocytochemistry). The class given is cell-based, human. How it is done:
Human neuroblastoma SK—N—SH full length (fl) alpha-synuclein stable clones were seeded onto poly-D-lysine-coated glass coverslides in 24-well plates and were grown in complete medium comprising Dulbecco's modified Eagle's medium with 1000 mg glucose/l supplemented with 10% heat-inactivated fetal bovine serum, 100 μg/ml penicillin and 100 μg/ml streptomycin. Cells were maintained at 37° C. under a humidified atmosphere of 5% CO2 and […]. At 80% confluence, cells underwent glucose deprivation (GD) in order to induce alpha-synuclein aggregation (Bellucci, A.; et al. Journal of neurochemistry 2008, 106, 560-577). Briefly, GD was performed through an incubation of the cells with Hank's balanced salt solution supplemented with 2 mM glutamine and 10% heat-inactivated fetal bovine serum, for 1 h at 37° C. […] After 24 h of treatment, cells were fixed by incubating for 15 min in 4% paraformaldehyde with 4% sucrose in 1 M PBS, pH 7.4. The fixed cells were then stored in PBS-containing 0.05% sodium azide. Slides were incubated for 1 h at room temperature in blocking solution [2% w/v bovine serum albumin (BSA) plus 3% v/v normal goat serum in PBS], then overnight at 4° C. with the primary antibody (Syn211 antibody against alpha-synuclein) at the optimal working dilution. On the following day, cells were incubated for 1 h at room temperature with the Cy3-conjugated secondary antibody diluted in 0.1% Triton X-100 PBS plus BSA 1 mg/ml. Finally, cell nuclei were counterstained with Hoechst 33258 dye, and the coverslips were mounted onto glass slides using Vectashield.

Data set [3] deals with alpha-synuclein aggregation in primary mesencephalic neurons. The data set can be described thus: Alpha-synuclein aggregation in primary mouse midbrain neurons exposed to glucose deprivation. In kind it is cell-based.
Data set [4] concerns SYN120 tg mice. The data set can be described thus: Open-field motility after acute i.p. injection in SYN120 tg mice. In kind it is in vivo, mouse. The following applies: acute i.p. 10 mg/kg, 12 month-old SYN120 tg mice. From the text:
We investigated the ability of compound I-threo to stimulate the motility of Parkinson's disease mice more efficiently that MPH. […] All experiments were made in accordance with Directive 2010/63/EU of the European Parliament and of the Council of 22 Sep. 2010 on the protection of animals used. All experimental procedures conformed to the National Research Guide for the Care and Use of Laboratory Animals and were approved by the Animal Research Committees of the University of Brescia (Protocol Permit 719/2015-PR). Three different groups of 12 month-old SYN120 tg mice (N=3 animals per group) were used for the motility assay by using the open-field behavioural paradigm. The motility of the animals in the open-field arena was registered and analysed by using the Any-Maze system. […] The total distance travelled by the mice during 2.5 minutes intervals was plotted on graphs.

Data set [5] relates to SYN120 tg mice. Description: Open-field motility after chronic 6 weeks treatment in SYN120 tg mice. In kind it is in vivo, mouse. Conditions: daily i.p. 5 mg/kg for 6 weeks, vs vehicle. As to the method: Two groups of 12 month-old SYN120 tg mice (N=4 animals per group) were subjected to daily i.p. administration of either vehicle or compound I-threo (5 mg/kg) for 6 weeks. All experiments were made in accordance with Directive 2010/63/EU of the European Parliament and of the Council of 22 Sep. 2010 on the protection of animals used. All experimental or surgical procedures conformed to the National Research Guide for the Care and Use of Laboratory Animals and were approved by the Animal Research Committees of the University of Brescia (Protocol Permit 719/2015-PR). At the end of treatment, the total distance travelled by the mice was recorded in the open field arena. […] Student's t-test. N=3 for each experimental group.

As to `COC(=O)[C@H](c1ccc(C)cc1)C1CCCCN1.Cl` (stereo partly drawn) [I-erythro], the “cell viability (MTT) at 100 μM” value in data set [1] is reported as “did not result toxic”.
`COC(=O)[C@@H](c1ccc(C)cc1)C1CCCCN1.Cl` (stereo partly drawn) [I-threo, threo methyl 2-(piperidin-2-yl)-2-(p-tolyl)acetate hydrochloride]: the “alpha-synuclein aggregates seen in images after GD” value in data set [2] (10 μM, 24 h, vs non-treated (NT) cells, preliminary) is listed as “no aggregates were observed”. Besides, the “formation of alpha-synuclein inclusions after GD (immunofluorescence intensity and average particle size)” value in data set [2] (10 μM, 24 h after 1 h glucose deprivation, vs untreated, hydrochloride) is listed as “significantly reduce the formation of alpha-synuclein inclusions; also recorded: significantly reduce alpha-synuclein aggregation in vitro”. Moreover, the negative-log EC50 (pEC50) in data set [2] (Homo sapiens, SK-N-SH cells, read-out: EC50 in reducing alpha-synuclein aggregation) was 6.37. Also, the “efficacy (% effect) in reducing alpha-synuclein aggregation, compared with MPH” value in data set [2] (SK-N-SH cells) is given as “almost comparable”. Moreover, the “EC50 fold lower than that of MPH” value in data set [2] (SK-N-SH cells, I-threo vs MPH) was 200 fold. For the same molecule, the “alpha-synuclein inclusion formation (total immunofluorescence intensity and particle size)” value in data set [3] (I-threo, VI-threo 50 and 100 nM, MPH 100 nM, hydrochloride) is “significantly reduce alpha-synuclein inclusion formation; also recorded: efficiently hinders alpha-synuclein aggregation”. In addition, the “efficiency higher than that of MPH” value in data set [3] (primary neurons) was 50-70%. For the same molecule, the “cell viability (MTT) at 100 μM” value in data set [1] (hydrochloride) is on record as “reduce the cell viability; also recorded: significant decrease in cell viability”. In addition, in data set [1] (concentrations reducing aggregation or stimulating interaction), the “toxic effects (MTT) at the working concentrations” value is recorded as “did not exhibit toxic effects”. Moreover, in the data set on SYN120 tg mice [4], the “motility (total distance travelled) in open field arena” value is given as “improve the motility of SYN120 tg mice more efficiently than MPH”. Also, the “total motility (total distance travelled) in open field” value with SYN120 tg mice [5] is “significant improvement in total motility”.

The values above are taken from patent US12629359B2 (UNIVERSITA' DEGLI STUDI DI BRESCIA, priority 2020, dated 2026).
